Calls of active or inactive are those of the source. The rule behind the calls is not given here.

System in one data set: not listed separately
Nature of the data set: Cytotoxicity against human C8166 cells assessed as cell viability by MTT assay. It counts as cell-based. The following applies: read-out: Activity. In general terms: Tetrazolium dyes change colour on reduction, which living cells bring about.
Consider `CC(=O)OC[C@]12[C@@H](OC(C)=O)[C@@H](OC(=O)c3ccccc3)[C@@H]3C[C@]1(OC3(C)C)[C@H](C)C[C@H](OC(C)=O)[C@@H]2OC(C)=O`, for which the viability worked out at 96%.

A further data set concerns Human immunodeficiency virus 1. Nature of the data set: Antiviral activity against HIV1 infected in human C8166 cells after 72 hrs by p24 antigen based ELISA.
Settings: not given
It counts as functional. Background: An ELISA detects its analyte on a solid surface through an enzyme-linked reagent.
For the compound `CC(=O)OC[C@]12[C@H](OC(C)=O)[C@@H](OC(C)=O)[C@@H]3[C@@H](O)[C@@]14O[C@@]3(C)COC(=O)c1cnccc1CCC(C)C(=O)O[C@@H]([C@H](OC(C)=O)[C@@H]2OC(C)=O)[C@]4(C)O` (stereo partly specified), the inhibition result is “inactive”.

For the compound `CCC(C)C(=O)O[C@@H]1[C@H](OC(C)=O)[C@@H]2[C@@H](OC(C)=O)[C@]3(OC2(C)C)[C@H](C)C[C@H](OC(C)=O)[C@H](OC(=O)c2ccccc2)[C@@]13C` (stereo partly specified), the inhibition result was “inactive”.

As for `CC(=O)O[C@@H]1[C@H]2[C@@H](OC(=O)c3ccccc3)[C@@H](OC(=O)c3ccccc3)[C@]3(C)[C@@H](OC(C)=O)[C@@H](OC(=O)c4ccccc4)C[C@@H](C)[C@@]13OC2(C)C`, the inhibition result was “inactive”.

For `CC(=O)O[C@@H]1[C@H]2[C@@H](OC(=O)c3ccccc3)[C@@H](OC(=O)c3ccccc3)[C@]3(C)[C@@H](OC(C)=O)[C@@H](O)C[C@@H](C)[C@@]13OC2(C)C`, the inhibition result is “inactive”.

For `CC(=O)OC[C@]12[C@H](OC(C)=O)C(=O)[C@@H]3[C@@H](O)[C@@]14O[C@@]3(C)COC(=O)c1cnccc1CCC(C)C(=O)O[C@@H]([C@H](OC(C)=O)[C@@H]2OC(C)=O)[C@]4(C)O` (stereo partly specified), the inhibition result is “inactive”.

As to `CC(=O)OC[C@]12[C@H](OC(C)=O)[C@@H](O)[C@@H]3[C@@H](O)[C@@]14O[C@@]3(C)COC(=O)c1cnccc1CCC(C)C(=O)O[C@@H]([C@H](OC(C)=O)[C@@H]2OC(C)=O)[C@]4(C)O` (stereo partly specified), the inhibition entry was “inactive”.

Turning to `CC(=O)OC[C@]12[C@H](OC(C)=O)[C@@H](OC(C)=O)[C@@H]3[C@@H](OC(=O)c4ccco4)[C@@]14O[C@@]3(C)COC(=O)c1cnccc1CCC(C)C(=O)O[C@@H]([C@H](OC(C)=O)[C@@H]2OC(C)=O)[C@]4(C)O` (stereo partly specified), the inhibition entry was “inactive”.

As to `CC(=O)OC[C@]12[C@@H](OC(C)=O)[C@@H](OC(=O)c3ccccc3)[C@@H]3C[C@]1(OC3(C)C)[C@H](C)C[C@H](OC(C)=O)[C@@H]2OC(C)=O`, the “inhibition (INH)” value is 64.4%.

For the compound `CC(=O)OC[C@]12[C@H](OC(C)=O)[C@H](OC(=O)c3ccccc3)[C@@H]3[C@@H](OC(C)=O)[C@]1(OC3(C)C)[C@H](C)C[C@H](OC(C)=O)[C@@H]2OC(C)=O`, the inhibition result is “inactive”.

Take `CC(=O)OC[C@]12[C@H](OC(C)=O)[C@@H](OC(C)=O)[C@@H]3C(=O)[C@@]14O[C@@]3(C)COC(=O)c1cnccc1CCC(C)C(=O)O[C@@H]([C@H](OC(C)=O)[C@@H]2OC(C)=O)[C@]4(C)O` (stereo partly specified): the inhibition result was “inactive”.

For `CC(=O)OC[C@]12[C@H](OC(=O)c3ccccc3)[C@H](OC(=O)c3ccccc3)[C@@H]3[C@@H](OC(C)=O)[C@]1(OC3(C)C)[C@H](C)C[C@H](O)[C@@H]2OC(C)=O`, the inhibition entry was “inactive”.

On to `CCCCCCCCCCCC(=O)O[C@@H]1[C@H]2[C@H](OC(C)=O)[C@@H](OC(C)=O)[C@]3(COC(C)=O)[C@@H](OC(C)=O)[C@@H](OC(C)=O)[C@@H]4OC(=O)C(C)CCc5ccncc5C(=O)OC[C@]2(C)O[C@]13[C@@]4(C)O` (stereo partly specified), for which the inhibition result was “inactive”.

For the compound `CC(=O)OC[C@]12[C@H](OC(C)=O)[C@@H](OC(C)=O)[C@@H]3[C@@H](OC(=O)N(C)C)[C@@]14O[C@@]3(C)COC(=O)c1cnccc1CCC(C)C(=O)O[C@@H]([C@H](OC(C)=O)[C@@H]2OC(C)=O)[C@]4(C)O` (stereo partly specified), the inhibition result was “inactive”.

As for `CC(=O)OC[C@]12[C@H](OC(C)=O)[C@H](OC(C)=O)[C@@H]3[C@@H](OC(C)=O)[C@@]14O[C@@]3(C)COC(=O)c1cnccc1CCC(C)C(=O)O[C@@H]([C@H](OC(C)=O)[C@@H]2OC(C)=O)[C@]4(C)O` (stereo partly specified), the inhibition result was “inactive”.

As for `CC(=O)OC[C@]12[C@H](OC(C)=O)[C@@H](OC(C)=O)[C@@H]3[C@@H](OC(=O)c4ccc(Br)cc4)[C@@]14O[C@@]3(C)COC(=O)c1cnccc1CCC(C)C(=O)O[C@@H]([C@H](OC(C)=O)[C@@H]2OC(C)=O)[C@]4(C)O` (stereo partly specified), the inhibition entry is “inactive”.

Turning to `CC(=O)OC[C@]12[C@H](OC(C)=O)[C@@H](OC(C)=O)[C@@H]3[C@@H](OC(C)=O)[C@@]14O[C@@]3(C)COC(=O)c1cnccc1CCC(C)C(=O)O[C@@H]([C@H](OC(C)=O)[C@@H]2OC(C)=O)[C@]4(C)O` (stereo partly specified), the inhibition entry is “inactive”.

Take `CC(=O)O[C@@H]1[C@@H]2[C@@H](OC(C)=O)[C@]3(OC2(C)C)[C@H](C)C[C@H](O)[C@H](OC(C)=O)[C@@]3(C)[C@@H]1OC(=O)c1ccccc1`: the inhibition entry was “inactive”.

`CC(=O)OC[C@@]12[C@H](OC(C)=O)[C@H](OC(C)=O)[C@@H]3[C@@H](OC(=O)c4ccccc4)[C@@]14O[C@@]3(C)COC(=O)c1cccnc1CC[C@H](C)C(=O)O[C@@H]([C@H](OC(C)=O)[C@@H]2OC(C)=O)[C@]4(C)O`: the inhibition entry is “inactive”.

`CC(=O)OC[C@]12[C@H](OC(C)=O)[C@H](OC(C)=O)[C@@H]3[C@@H](OC(C)=O)[C@@]14O[C@@]3(C)COC(=O)c1cccnc1CCC(C)C(=O)O[C@@H]([C@H](OC(C)=O)[C@@H]2OC(C)=O)[C@]4(C)O` (stereo partly specified): the inhibition result is “inactive”.

Turning to `CC(=O)OC[C@]12[C@H](OC(C)=O)[C@@H](OC(C)=O)[C@@H]3[C@@H](OC(=O)c4cccnc4)[C@@]14O[C@@]3(C)COC(=O)c1cnccc1CCC(C)C(=O)O[C@@H]([C@H](OC(C)=O)[C@@H]2OC(C)=O)[C@]4(C)O` (stereo partly specified), the inhibition entry is “inactive”.

With `CC(=O)O[C@@H]1[C@@H]2[C@@H](OC(C)=O)[C@]3(OC2(C)C)[C@H](C)C[C@H](OC(C)=O)[C@H](OC(=O)c2ccccc2)[C@@]3(C)[C@@H]1OC(C)=O`, the inhibition result was “inactive”.

Turning to `CCC(C)C(=O)O[C@@H]1[C@@H]2[C@@H](OC(C)=O)[C@]3(OC2(C)C)[C@H](C)C[C@H](O)[C@H](OC(C)=O)[C@@]3(COC(C)=O)[C@@H]1OC(=O)c1ccccc1` (stereo partly specified), the inhibition result was “inactive”.

`CC(=O)OC[C@]12[C@H](OC(C)=O)C(=O)[C@@H]3[C@@H](OC(C)=O)[C@@]14O[C@@]3(C)COC(=O)c1ncccc1C[C@H](C)[C@H](C)C(=O)O[C@H]([C@@H](OC(C)=O)[C@@H]2OC(C)=O)[C@H]4C`: the inhibition result was “inactive”.

Consider `CC(=O)OC[C@]12[C@H](OC(C)=O)[C@@H](OC(C)=O)[C@@H]3[C@@H](OC(C)=O)[C@@]14O[C@@]3(C)COC(=O)c1cccnc1CCC(C)C(=O)O[C@@H]([C@H](OC(C)=O)[C@@H]2OC(C)=O)[C@]4(C)O` (stereo partly specified), for which the inhibition result was “inactive”.

Regarding `CC(=O)OC[C@]12[C@H](OC(=O)c3ccccc3)[C@@H](OC(C)=O)[C@@H]3[C@@H](OC(C)=O)[C@]1(OC3(C)C)[C@H](C)C[C@H](O)[C@@H]2OC(C)=O`, the inhibition entry is “inactive”.

The record behind these values is ChEMBL document CHEMBL3351883, “β-Agarofurans and Sesquiterpene Pyridine Alkaloids from Maytenus spinosa” (J Nat Prod, 2014).
